# Measurements published in patent US20100298141A1, “SUBSTITUTED PYRIDINE N-OXIDE HERBICIDES” (E. I. DU PONT DE NEMOURS AND COMPANY, priority 2007, published 2010).
# How the values were obtained:
# [1] = system: crabgrass; experiment: Test A pre-/postemergence greenhouse test; format: in vivo, Digitaria sanguinalis; settings: for Crabgrass, Large plant response rating: 0 to 100 scale; for Plant response rating, Crabgrass, Large: 0 to 100 scale where 0 is no effect and 100 is complete control
# Procedure, shortened: (§1)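 Sowing in loam/sand; same-day pre (directed soil spray) and post (foliar, 1–2 leaf, 2–10 cm) treatment with surfactant-containing non-phytotoxic solvent formulation; ~10 days in greenhouse; eye-scored injury against untreated plants.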
# [2] = system: giant foxtail; experiment: Test A pre-/postemergence greenhouse test; format: in vivo, Setaria faberi; settings: for Foxtail, Giant plant response rating: 0 to 100 scale; for Plant response rating, Foxtail, Giant: 0 to 100 scale where 0 is no effect and 100 is complete control
# Procedure, shortened: as §1
# [3] = system: morningglory; experiment: Test A pre-/postemergence greenhouse test; format: in vivo, Ipomoea spp.; settings: for Morningglory plant response rating: 0 to 100 scale; for Plant response rating, Morningglory: 0 to 100 scale where 0 is no effect and 100 is complete control
# Procedure, shortened: as §1
# [4] = system: wheat; experiment: Test A pre-/postemergence greenhouse test; format: in vivo, Triticum aestivum; settings: for Wheat plant response rating: 0 to 100 scale; for Plant response rating, Wheat: 0 to 100 scale where 0 is no effect and 100 is complete control
# Procedure, shortened: as §1
# [5] = system: corn; experiment: Test A pre-/postemergence greenhouse test; format: in vivo, Zea mays; settings: for Corn plant response rating: 0 to 100 scale; for Plant response rating, Corn: 0 to 100 scale where 0 is no effect and 100 is complete control
# Procedure, shortened: as §1
# [6] = system: Italian ryegrass; experiment: Test C pre-/postemergence test; format: in vivo, Lolium multiflorum
# Procedure, shortened: (§2)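 Test chemicals were formulated with surfactant in a non-phytotoxic solvent and sprayed both on freshly planted seeds (preemergence) and on 1- to 4-leaf plants of 2–18 cm (postemergence). Flooded-paddy pots received compound directly into 3 cm of standing water, maintained for the test.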
# [7] = system: wheat; experiment: Test C pre-/postemergence test; format: in vivo, Triticum aestivum; settings: for Plant response rating, Wheat: 31 g ai/ha, scale 0 to 100 (0 no effect, 100 complete control)
# Procedure, shortened: as §2
# [8] = system: catchweed bedstraw; experiment: Test C pre-/postemergence test; format: in vivo, Galium aparine; settings: for Plant response rating, Galium: 31 g ai/ha, scale 0 to 100 (0 no effect, 100 complete control)
# Procedure, shortened: as §2
# [9] = system: bermudagrass; experiment: Test C pre-/postemergence test; format: in vivo, Cynodon dactylon; settings: for Plant response rating, Bermudagrass: 31 g ai/ha
# Procedure, shortened: as §2
# [10] = system: Goosegrass; experiment: Test C pre-/postemergence test; format: in vivo, Eleusin indica; settings: for Plant response rating, Goosegrass: 31 g ai/ha, scale 0 to 100 (0 no effect, 100 complete control)
# Procedure, shortened: as §2
# [11] = system: morningglory; experiment: Test C pre-/postemergence test; format: in vivo, Ipomoea coccinea; settings: for Plant response rating, Morningglory: 31 g ai/ha, scale 0 to 100 (0 no effect, 100 complete control)
# Procedure, shortened: as §2
# [12] = system: yellow nutsedge; experiment: Test C pre-/postemergence test; format: in vivo, Cyperus esculentus; settings: for Plant response rating, Nutsedge, Yellow: 31 g ai/ha, scale 0 to 100 (0 no effect, 100 complete control)
# Procedure, shortened: as §2
# [13] = system: pigweed; experiment: Test C pre-/postemergence test; format: in vivo, Amaranthus retroflexus; settings: for Plant response rating, Pigweed: 31 g ai/ha, scale 0 to 100 (0 no effect, 100 complete control)
# Procedure, shortened: as §2
# [14] = system: soybean; experiment: Test C pre-/postemergence test; format: in vivo, Glycine max; settings: for Plant response rating, Soybean: 31 g ai/ha, scale 0 to 100 (0 no effect, 100 complete control)
# Procedure, shortened: as §2
# [15] = system: common (oilseed) sunflower; experiment: Test C pre-/postemergence test; format: in vivo, Helianthus annuus; settings: for Plant response rating, Sunflower: 31 g ai/ha, scale 0 to 100 (0 no effect, 100 complete control)
# Procedure, shortened: as §2
# [16] = system: umbrella sedge; experiment: Test C flooded paddy test; format: in vivo, Cyperus difformis; settings: Flood
# Procedure, shortened: (§3)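 Flooded 3 cm over soil; compound into paddy water; depth kept constant. Greenhouse 13–15 d.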
# [17] = system: barnyardgrass; experiment: Test C flooded paddy test; format: in vivo, Echinochloa crus-galli; settings: Flood
# Procedure, shortened: as §3
# [18] = Postemergence, 125 g ai/ha, 0 is no effect, 100 is complete control
# [19] = Postemergence, 500 g ai/ha, 0 is no effect, 100 is complete control
# [20] = Preemergence, 125 g ai/ha, 0 no effect, 100 complete control
# [21] = preemergence, 250 g ai/ha, scale 0 (no effect) to 100 (complete control)
# [22] = 62 g ai/ha, Preemergence, scale 0 to 100 (0 no effect, 100 complete control)
# [23] = 125 g ai/ha, preemergence, scale 0 (no effect) to 100 (complete control)
# [24] = Preemergence, scale 0 to 100 (0 no effect, 100 complete control)
# [25] = 62 g ai/ha, Preemergence, scale 0 to 100
# [26] = 31 g ai/ha, scale 0 to 100 (0 no effect, 100 complete control)
# [27] = 62 g ai/ha, scale 0 to 100, 0 no effect, 100 complete control, 13 to 15 days
# [28] = 125 g ai/ha, scale 0 to 100, 0 no effect, 100 complete control, 13 to 15 days
# [29] = 250 g ai/ha, scale 0 to 100, 0 no effect, 100 complete control, 13 to 15 days
smiles,measurement,setting,value
Cc1cc[n+]([O-])c(S(=O)(=O)C(Cl)c2c(C(F)(F)F)nn(C)c2OCC(F)(F)F)c1 (racemic) [Compound 37],"Crabgrass, Large plant response rating",[1]; [18],30
same,"Crabgrass, Large plant response rating",[1]; [19],80
same,"Crabgrass, Large plant response rating",[1]; [20],60
same,"Plant response rating, Crabgrass, Large","[1]; Preemergence, 500 g ai/ha",90
same,"Foxtail, Giant plant response rating",[2]; [18],30
same,"Foxtail, Giant plant response rating",[2]; [19],80
same,"Foxtail, Giant plant response rating",[2]; [20],90
same,"Plant response rating, Foxtail, Giant","[2]; Preemergence, 500 g ai/ha",100
same,Morningglory plant response rating,[3]; [18],0
same,Morningglory plant response rating,[3]; [19],20
same,Morningglory plant response rating,[3]; [20],0
same,"Plant response rating, Morningglory","[3]; Preemergence, 500 g ai/ha",80
same,Wheat plant response rating,[4]; [18],0
same,Wheat plant response rating,[4]; [19],50
same,Wheat plant response rating,[4]; [20],20
same,"Plant response rating, Wheat","[4]; Preemergence, 500 g ai/ha",50
same,Corn plant response rating,[5]; [18],0
same,Corn plant response rating,[5]; [19],40
same,Corn plant response rating,[5]; [20],0
same,"Plant response rating, Corn","[5]; Preemergence, 500 g ai/ha",30
same,"Plant response rating, Ryegrass, Italian","[6]; Preemergence, 31 g ai/ha, scale 0 to 100 (0 no effect, 100 complete control)",0
same,"Ryegrass, Italian plant response rating",[6]; [21],100
same,"Plant response rating, Wheat",[7]; Preemergence,0
same,Wheat plant response rating,[7]; [21],30
same,"Plant response rating, Galium",[8]; Preemergence,80
same,Galium plant response rating,[8]; [21],80
same,Bermudagrass plant response rating,[9]; [22],90
same,Bermudagrass plant response rating,[9]; [23],100
same,"Plant response rating, Bermudagrass",[9]; [24],85
same,Bermudagrass plant response rating,[9]; [21],100
same,Goosegrass plant response rating,[10]; [25],100
same,Goosegrass plant response rating,[10]; [23],100
same,"Plant response rating, Goosegrass",[10]; Preemergence,85
same,Goosegrass plant response rating,[10]; [21],100
same,Morningglory plant response rating,[11]; [25],0
same,Morningglory plant response rating,[11]; [23],0
same,"Plant response rating, Morningglory",[11]; Preemergence,0
same,Morningglory plant response rating,[11]; [21],60
same,"Nutsedge, Yellow plant response rating",[12]; [25],0
same,"Nutsedge, Yellow plant response rating",[12]; [23],80
same,"Plant response rating, Nutsedge, Yellow",[12]; Preemergence,0
same,"Nutsedge, Yellow plant response rating",[12]; [21],80
same,Pigweed plant response rating,[13]; [25],100
same,Pigweed plant response rating,[13]; [23],100
same,"Plant response rating, Pigweed",[13]; Preemergence,80
same,Pigweed plant response rating,[13]; [21],100
same,Soybean plant response rating,[14]; [23],10
same,"Plant response rating, Soybean",[14]; Preemergence,0
same,Soybean plant response rating,[14]; [21],10
same,Sunflower plant response rating,[15]; [25],0
same,Sunflower plant response rating,[15]; [23],0
same,"Plant response rating, Sunflower",[15]; Preemergence,0
same,Sunflower plant response rating,[15]; [21],40
same,"Plant response rating, Sedge, Umbrella",[16]; [26],60
same,"Plant response rating, Sedge, Umbrella",[16]; [27],85
same,"Plant response rating, Sedge, Umbrella",[16]; [28],95
same,"Plant response rating, Sedge, Umbrella",[16]; [29],95
same,"Plant response rating, Barnyardgrass",[17]; [26],10
same,"Plant response rating, Barnyardgrass",[17]; [27],10
same,"Plant response rating, Barnyardgrass",[17]; [28],10
same,"Plant response rating, Barnyardgrass",[17]; [29],80
Cn1nc(C(F)(F)F)c(C[S+]([O-])c2cc(F)cc[n+]2[O-])c1Cl (racemic) [Compound 42],"Crabgrass, Large plant response rating",[1]; [18],80
same,"Crabgrass, Large plant response rating",[1]; [19],90
same,"Crabgrass, Large plant response rating",[1]; [20],70
same,"Plant response rating, Crabgrass, Large","[1]; Preemergence, 500 g ai/ha",100
same,"Foxtail, Giant plant response rating",[2]; [18],80
same,"Foxtail, Giant plant response rating",[2]; [19],90
same,"Foxtail, Giant plant response rating",[2]; [20],100
same,"Plant response rating, Foxtail, Giant","[2]; Preemergence, 500 g ai/ha",100
same,Morningglory plant response rating,[3]; [18],40
same,Morningglory plant response rating,[3]; [19],90
same,Morningglory plant response rating,[3]; [20],30
same,"Plant response rating, Morningglory","[3]; Preemergence, 500 g ai/ha",90
same,Wheat plant response rating,[4]; [18],40
same,Wheat plant response rating,[4]; [19],50
same,Wheat plant response rating,[4]; [20],20
same,"Plant response rating, Wheat","[4]; Preemergence, 500 g ai/ha",60
same,Corn plant response rating,[5]; [18],0
same,Corn plant response rating,[5]; [19],70
same,Corn plant response rating,[5]; [20],0
same,"Plant response rating, Corn","[5]; Preemergence, 500 g ai/ha",0
same,"Ryegrass, Italian plant response rating",[6]; [25],55
same,"Ryegrass, Italian plant response rating",[6]; [23],80
same,"Ryegrass, Italian plant response rating",[6]; [21],85
same,Wheat plant response rating,[7]; [25],0
same,Wheat plant response rating,[7]; [23],10
same,"Plant response rating, Wheat",[7]; Preemergence,0
same,Wheat plant response rating,[7]; [21],70
same,Galium plant response rating,[8]; [25],50
same,Galium plant response rating,[8]; [23],100
same,"Plant response rating, Galium",[8]; Preemergence,0
same,Galium plant response rating,[8]; [21],100
same,Bermudagrass plant response rating,[9]; [22],100
same,Bermudagrass plant response rating,[9]; [23],100
same,"Plant response rating, Bermudagrass",[9]; [24],70
same,Bermudagrass plant response rating,[9]; [21],100
same,Goosegrass plant response rating,[10]; [25],100
same,Goosegrass plant response rating,[10]; [23],100
same,"Plant response rating, Goosegrass",[10]; Preemergence,85
same,Goosegrass plant response rating,[10]; [21],100
same,Morningglory plant response rating,[11]; [25],50
same,Morningglory plant response rating,[11]; [23],50
same,"Plant response rating, Morningglory",[11]; Preemergence,0
same,Morningglory plant response rating,[11]; [21],90
same,"Nutsedge, Yellow plant response rating",[12]; [25],60
same,"Nutsedge, Yellow plant response rating",[12]; [23],85
same,"Plant response rating, Nutsedge, Yellow",[12]; Preemergence,0
same,"Nutsedge, Yellow plant response rating",[12]; [21],95
same,Pigweed plant response rating,[13]; [25],100
same,Pigweed plant response rating,[13]; [23],100
same,"Plant response rating, Pigweed",[13]; Preemergence,100
same,Pigweed plant response rating,[13]; [21],100
same,Soybean plant response rating,[14]; [25],0
same,Soybean plant response rating,[14]; [23],40
same,"Plant response rating, Soybean",[14]; Preemergence,0
same,Soybean plant response rating,[14]; [21],40
same,Sunflower plant response rating,[15]; [25],0
same,Sunflower plant response rating,[15]; [23],30
same,"Plant response rating, Sunflower",[15]; Preemergence,0
same,Sunflower plant response rating,[15]; [21],80
same,"Plant response rating, Sedge, Umbrella",[16]; [26],80
same,"Plant response rating, Sedge, Umbrella",[16]; [27],85
same,"Plant response rating, Sedge, Umbrella",[16]; [28],90
same,"Plant response rating, Sedge, Umbrella",[16]; [29],95
same,"Plant response rating, Barnyardgrass",[17]; [26],0
same,"Plant response rating, Barnyardgrass",[17]; [27],0
same,"Plant response rating, Barnyardgrass",[17]; [28],40
same,"Plant response rating, Barnyardgrass",[17]; [29],55
